# Measured values from patent US11491091B2, “Cooling product” (SYMRISE AG, priority 2010, dated 2022).
# Test system: skin of test persons
# Experiment: Cooling effect on the skin as perceived by test persons (panel test)
# Format: in vivo
# Conditions: in each formulation the proportion of 1,2-pentanediol replaced with 1,2-hexanediol at a ratio of 5:3
# Excerpt: In case of doubt, the perceptibility of the cooling effect is to be determined by means of a panel test wherein the corresponding mixture is applied onto the skin of at least 10 test persons. If in the course of this, preferably in combination with a blind test, 90% of the test persons confirm a cooling effect, then this will preferably correspond to the criteria for the presence of a corresponding effect. Topical applications in terms of the present text are applications where the corresponding active substance or the combination of active substances is brought into contact with the skin or with a mucous membrane. It is especially preferred that the evaluation of a cooling effect and its enhancement is made analog to the application example presented below. […] Provided the corresponding formulations also contained trans-4-tert. butylcyclohexanol, the cooling effect was even further enhanced compared to formulations without this compound.
structure (smiles),measurement,value
"CCCCC(O)CO (stereo not shown) [1,2-hexanediol]","cooling effect enhancement after replacement of 1,2-pentanediol",comparable effects are achieved
